Measured values reported in patent publication US20100120700A1, “METHODS AND COMPOSITIONS FOR TREATING CERVICAL CANCER” (priority 2000, published 2010).
“And” between values parts separate entries of the source, which are not always exact repeats. Equal values may be shown once.

Experiments:
Test in all cases: G assay PDZ-PL binding
[1] = biological target: T1, INADL domain 6 (Homo sapiens, UniProt Q8NI35, G1085V); details: peptide 10 uM, protein 5
T1 construct: made in house; host or cells: E. coli (DH5alpha, BL21 or JM109)
Outline: (§1)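 Plate ELISA: anti-GST antibody coat, BSA block, then GST/PDZ fusion (GST alone as negative control). Biotinylated PL peptide 20 uM (10 uM in G′ variant) added, 10 min 4 °C plus 20 min 25 °C; streptavidin-HRP, TMB, absorbance 450 nm.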

[2] = biological target: T2, KIAA1526 #126.1 domain 2 (Homo sapiens, UniProt Q9P202, G331W); details: peptide 10 uM, protein 5
T2 construct: made in house; host or cells: E. coli (DH5alpha, BL21 or JM109)
Outline: as §1

[3] = biological target: T3, Shroom domain 1 (Homo sapiens, UniProt Q8TF72); details: peptide 10 uM, protein 5
T3 construct: made in house; host or cells: E. coli (DH5alpha or BL-21)
Outline: as §1

[4] = biological target: T4, KIAA1526 #119.1 domain 1 (Homo sapiens, UniProt Q9P202); details: peptide 10 uM, protein 5
T4 construct: made in house; host or cells: E. coli (DH5alpha or BL-21)
Outline: as §1

[5] = biological target: T5, KIAA0380 #25.6 domain 1 (Homo sapiens, UniProt O15085); details: vs GST only well, peptide 10 uM, protein 5
T5 construct: made in house; host or cells: E. coli (DH5alpha, BL21 or JM109), vector pGEX-3X
Outline: as §1

[6] = biological target: T6, KIAA0147 domain 4 (Homo sapiens, UniProt Q14160); details: peptide 10 uM, protein 5
T6 construct: made in house; host or cells: E. coli (DH5alpha, BL21 or JM109)
Outline: as §1

[7] = biological target: T7, Numb BP domain 1 (Homo sapiens, UniProt Q8TBB1); details: peptide 10 uM, protein 5
T7 construct: made in house; host or cells: E. coli (DH5alpha, BL21 or JM109)
Outline: as §1

[8] = biological target: T8, KIAA0545 domain 1 (Homo sapiens, UniProt O60292); details: peptide 10 uM, protein 5
T8 construct: made in house; host or cells: E. coli (DH5alpha or BL-21)
Outline: as §1

[9] = biological target: T9, MUPP1 domain 13 (Homo sapiens, UniProt O75970); details: peptide 10 uM, protein 5
T9 construct: made in house; host or cells: E. coli (DH5alpha or BL-21)
Outline: as §1

[10] = biological target: T10, DLG2 #162.1 domain 2 (Homo sapiens, UniProt Q15700, K278N); details: peptide 10 uM, protein 5
T10 construct: made in house; host or cells: E. coli (DH5alpha, BL21 or JM109), vector pGEX-3X
Outline: as §1

[11] = biological target: T11, MUPP1 domain 7 (Homo sapiens, UniProt O75970); details: peptide 10 uM, protein 5
T11 construct: made in house; host or cells: E. coli (DH5alpha, BL21 or JM109)
Outline: as §1

[12] = biological target: T12, DLG2 domain 1 (Homo sapiens, UniProt Q15700); details: peptide 10 uM, protein 5
T12 construct: made in house; host or cells: E. coli (DH5alpha, BL21 or JM109), vector pGEX-3X
Outline: as §1

[13] = biological target: T13, MAGI 1 domain 2 (Homo sapiens, UniProt Q96QZ7)
T13 construct: made in house; host or cells: E. coli (DH5alpha, BL21 or JM109)
Outline: as §1

T9 sequence (O75970 1980-2070): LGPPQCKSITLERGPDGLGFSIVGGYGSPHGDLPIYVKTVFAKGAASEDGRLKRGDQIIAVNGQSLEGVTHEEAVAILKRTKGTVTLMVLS
T13 sequence (Q96QZ7 463-566): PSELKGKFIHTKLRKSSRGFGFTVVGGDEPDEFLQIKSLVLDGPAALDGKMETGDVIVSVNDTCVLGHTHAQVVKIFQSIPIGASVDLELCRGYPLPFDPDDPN
T6 sequence (Q14160 1099-1203): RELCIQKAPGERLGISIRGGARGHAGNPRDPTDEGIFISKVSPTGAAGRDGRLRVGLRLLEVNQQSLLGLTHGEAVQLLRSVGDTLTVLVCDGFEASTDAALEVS
T5 sequence (O15085 45-123): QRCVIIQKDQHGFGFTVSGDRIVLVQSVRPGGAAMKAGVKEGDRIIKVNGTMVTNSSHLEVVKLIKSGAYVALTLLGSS
T3 sequence (Q8TF72 26-116): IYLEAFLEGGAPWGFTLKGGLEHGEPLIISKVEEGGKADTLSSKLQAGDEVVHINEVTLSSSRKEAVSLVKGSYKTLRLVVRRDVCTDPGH
T1 sequence (Q8NI35 with tags, fused parts or gaps G1085V): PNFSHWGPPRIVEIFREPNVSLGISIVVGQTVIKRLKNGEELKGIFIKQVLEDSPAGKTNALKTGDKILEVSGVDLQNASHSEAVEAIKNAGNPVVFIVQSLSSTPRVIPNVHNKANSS
T2 sequence (Q9P202 272-371 G331W): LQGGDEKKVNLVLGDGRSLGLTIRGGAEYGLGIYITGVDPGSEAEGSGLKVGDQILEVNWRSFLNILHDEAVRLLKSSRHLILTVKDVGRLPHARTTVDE
T8 sequence (O60292 955-1050): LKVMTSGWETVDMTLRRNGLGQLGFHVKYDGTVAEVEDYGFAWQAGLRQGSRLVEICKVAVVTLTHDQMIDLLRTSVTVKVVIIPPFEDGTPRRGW
T11 sequence (O75970 with tags, fused parts or gaps): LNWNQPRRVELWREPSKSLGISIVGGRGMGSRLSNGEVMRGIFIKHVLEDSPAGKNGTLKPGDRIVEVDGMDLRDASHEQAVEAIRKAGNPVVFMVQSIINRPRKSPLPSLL
T7 sequence (Q8TBB1 with tags, fused parts or gaps): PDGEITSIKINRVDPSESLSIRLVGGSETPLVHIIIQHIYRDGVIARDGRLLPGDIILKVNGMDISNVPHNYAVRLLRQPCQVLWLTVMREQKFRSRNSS
T4 sequence (Q9P202 130-232): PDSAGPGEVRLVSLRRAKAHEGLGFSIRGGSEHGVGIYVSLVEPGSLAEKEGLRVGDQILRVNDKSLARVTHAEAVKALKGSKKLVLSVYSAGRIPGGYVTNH

20 mer peptide corresponding to the C-terminus of HPV16 E6 (PDZ ligand), biotinylated in binding assays; ends SSRTRRETQL (SEQ ID NO: 13) [HPV E6 #16]
Ave OD ([1]; A450 nm): 0.518 | OD S/N ([1]; vs GST only well): 3.07 | Ave OD ([2]; A450 nm): 0.4625 | OD S/N ([2]; vs GST only well): 1.87 | Ave OD ([3]; A450 nm): 0.361 | OD S/N ([3]; vs GST only well): 3.25 | Ave OD ([4]; A450 nm): 0.425 | OD S/N ([4]; vs GST only well): 1.38 | OD S/N [5]: 1.95 and 3.06 | Ave OD ([6]; A450 nm): 0.464 and 0.3795 | OD S/N ([6]; vs GST only well): 2.17 and 2.34 | Ave OD ([7]; A450 nm): 0.352 | OD S/N ([7]; vs GST only well): 3.17 | Ave OD ([8]; A450 nm): 0.4395 | OD S/N ([8]; vs GST only well): 3.96 | Ave OD ([9]; A450 nm): 0.4355 and 0.4115 | OD S/N ([9]; vs GST only well): 1.56 and 1.75 | Ave OD ([10]; A450 nm): 0.908 and 0.853 | OD S/N ([10]; vs GST only well): 3.87 and 3.05 | Ave OD ([11]; A450 nm): 0.498 | OD S/N ([11]; vs GST only well): 1.61 | Ave OD ([12]; A450 nm): 0.793 | OD S/N ([12]; vs GST only well): 3.59 | Ave OD ([13]; A450 nm, MAGI 1 domain 2, peptide 10 uM, protein 5): 4.1125 | binding to MAGI-1 second PDZ domain (qualitative) ([13]; G assay / Matrix TM assay, called MAGI 1 domain 1 in b521 (nomenclature b497)): bound with the highest relative affinity | OD S/N ([13]; vs GST only well, MAGI 1 domain 2, peptide 10 uM, protein 5): 19.54
